From publication PMC9246773, “Assessing the Activity of Antimicrobial Peptides Against Common Marine Bacteria Located in Rotifer (Brachionus plicatilis) Cultures” (Probiotics and Antimicrobial Proteins, 2022)
No end group written: not given here.

What was measured:
[1] = cited from earlier work
Text: A study by Haney determined the aggregation properties of the innate defence regulator (IDR) peptides 1018, 1002 and HH2 in different media such as salts and serum. These IDR peptides are synthetic analogues to natural host defence peptides (HDPs) found in organisms. […] Second-generation peptides are synthetically rearranged IDRs that are created to combat unwa ...

bacterial isolates = assay type: cell-based; details: 18 h
Procedure: (§1) A range of bacterial species with the potential to be transferred to developing fish larvae as pathogens or probiotics were selected for use in the study (Table 2). Bacterial isolates were stored at −80 °C and thawed, and 25 µL of the isolates was spread onto marine salt agar (MSA) media. All isolates were incubated at 25 °C for 18 h to reach mid-log growth phase. All isolates were sub-cultured and identified using mass spectrometry (MALDI-TOF) using the BioTyper and MBT 8468 library (Bruker Pty Ltd). The isolate Tenacibaculum discolor was plated on Anacker and Oradal’s marine (AOM) media, incubated for 48 h and identified using the aforementioned method. Bacterial isolates were suspended in sterile saline (0.75% NaCl w/v) to 0.5 McFarland standard. […] The bacterial isolates T. discolor and Pseudoalteromonas sp. require marine salts to grow and were not added to MHB (0‰). The isolate T. discolor requires low nutrients to grow, therefore, a separate MHB (25‰) was prepared at a diluted ratio of 1 part MHB and 7 parts artificial seawater (25‰).
(§2) The protocol was followed to determine the minimum inhibitory concentration (MIC) of the selected peptides. Two MIC assays were performed, firstly to determine whether each peptide precipitated in MHB and thereby required acetic acid adjustments (supplementary materials) and secondly, to determine the antimicrobial activity of each peptide in artificial seawater (25‰). Peptide stock solutions (1.3 mg mL^−1) were made by diluting the peptides in sterile deionised water. MHB was made with deionised water to reach a concentration of approaching 0‰ and artificial sea salts (Sigma-Aldrich® S9883) to reach a salinity of 25‰.
Once the acetic acid requirement for each peptide was determined (Table 3), the antimicrobial activity of each peptide was tested at a salinity of 0‰ and 25‰ for all bacterial isolates. A stock solution for peptides that required acetic acid was prepared by a 1:2 dilution in acetic acid (0.02% acetic acid w/v, containing 0.4% BSA) solution. In a 96-well polypropylene microtitre plates (Costar® 3879), 100 µL of this peptide stock was added to the first well for each bacterial isolate tested and serially diluted twofold with acetic acid (0.01% acetic acid w/v, containing 0.2% BSA). From each well, 10 µL of each peptide concentration was added to the corresponding wells of a new 96-well microtitre plate. From each of the bacterial suspensions (0‰), 90 µL was added to each well. […] Twofold serial dilutions were made with MHB (0‰). From each of the bacterial suspensions (0‰), 50 µL was added to each well. The same method was followed for testing peptides in MHB at 25‰. All peptide concentrations ranged from 0.125 to 65 µg mL^−1, and the bacterial suspension in each well was approximately 5 × 10^5 CFU mL^−1. […]

[2] = test system: Vibrio harveyi (ATCC 35084); assay type: cell-based; details: ATCC 35084, 48 h
Procedure: as §1, §2
(§3) Once the acetic acid requirement for each peptide was determined (Table 3), the antimicrobial activity of each peptide was tested at a salinity of 0‰ and 25‰ for all bacterial isolates. A stock solution for peptides that required acetic acid was prepared by a 1:2 dilution in acetic acid (0.02% acetic acid w/v, containing 0.4% BSA) solution. In a 96-well polypropylene microtitre plates (Costar® 3879), 100 µL of this peptide stock was added to the first well for each bacterial isolate tested and serially diluted twofold with acetic acid (0.01% acetic acid w/v, containing 0.2% BSA). From each well, 10 µL of each peptide concentration was added to the corresponding wells of a new 96-well microtitre plate. From each of the bacterial suspensions (0‰), 90 µL was added to each well. […] Twofold serial dilutions were made with MHB (0‰). From each of the bacterial suspensions (0‰), 50 µL was added to each well. The same method was followed for testing peptides in MHB at 25‰. All peptide concentrations ranged from 0.125 to 65 µg mL^−1, and the bacterial suspension in each well was approximately 5 × 10^5 CFU mL^−1. The different salinities were used to compare any differences in antimicrobial activity in 0‰ and 25‰ water. […] Each bacterium was trialled in duplicate.

Vibrio harveyi [3] = assay type: cell-based; details: 48 h
Procedure: as §1, §2, §3

Vibrio scophthalmi [4] = assay type: cell-based; details: 48 h
Procedure: as §1, §2, §3

Vibrio alginolyticus [5] = assay type: cell-based; details: 48 h
Procedure: as §1, §2, §3

Vibrio rotiferianus [6] = assay type: cell-based; details: 48 h
Procedure: as §1, §2, §3

Pseudoalteromonas sp. = assay type: cell-based; details: 48 h
Procedure: as §1, §2, §3

Tenacibaculum discolor = assay type: cell-based; details: 48 h
Procedure: as §1, §2, §3

[7] = test system: Escherichia coli (ATCC 25922); assay type: cell-based; details: ATCC 25922, 48 h
Procedure: as §1, §2, §3

Shewanella sp. [8] = assay type: cell-based; details: 48 h
Procedure: as §1, §2, §3

[9] = test system: Vibrio harveyi (ATCC 35084); assay type: cell-based; details: ATCC 35084, 48 h; remark: listed apart in the source
Procedure: as §1, §2
(§4) A broth microdilution protocol was followed to test whether the AMPs precipitated in MHB. The isolates T. discolor and Pseudoalteromonas were excluded from this assay because they required marine salts for growth. The peptides HHC10 and HHC36 previously required acetic acid adjustments according to [63] and were not trialled in this assay. To test if peptides required acetic acid, each peptide was diluted 1:2 in acetic acid (0.02% acetic acid w/v, containing 0.4% BSA) solution. In a 96-well polypropylene microtitre plates (Costar® 3879), 100 µL of this peptide stock was added to the first well for each bacterial isolate tested and serially diluted 2-fold with acetic acid (0.01% acetic acid w/v, containing 0.2% BSA). From each well, 10 µL of each peptide concentration was added to the corresponding wells of a new 96-well microtitre plate. From each of the bacterial suspensions in MHB (0‰), 90 µL was added to each well. […] From each of the bacterial suspensions in MHB (0‰), 50 µL was added to each well. All peptide concentrations ranged from 0.125 - 65µg mL^-1 and the bacterial suspension in each well was approximately 5 × 10^5 CFU mL^-1. Antimicrobial peptides that have an MIC value two or more dilutions higher in the assay with no acetic acid, compared to the assay with acetic acid, require acetic acid adjustments. The 96-well plates were incubated at 25 °C and read at 24 and 48 hours. The MIC was visually determined using a Sensititre™ Vizion™ Digital MIC Viewing System (Thermo Scientific™), and the lowest AMP concentration that had no bacterial growth was recorded as the MIC after 48 hours. Each bacterium was trialled in duplicate.

Vibrio harveyi [10] = assay type: cell-based; details: 48 h; remark: listed apart in the source
Procedure: as §1, §2, §4

Vibrio scophthalmi [11] = assay type: cell-based; details: 48 h; remark: listed apart in the source
Procedure: as §1, §2, §4

Vibrio alginolyticus [12] = assay type: cell-based; details: 48 h; remark: listed apart in the source
Procedure: as §1, §2, §4

Vibrio rotiferianus [13] = assay type: cell-based; details: 48 h; remark: listed apart in the source
Procedure: as §1, §2, §4

[14] = test system: Escherichia coli (ATCC 25922); assay type: cell-based; details: ATCC 25922, 48 h; remark: listed apart in the source
Procedure: as §1, §2, §4

Shewanella sp. [15] = assay type: cell-based; details: 48 h; remark: listed apart in the source
Procedure: as §1, §2, §4

| Substance | cytotoxicity [1] | MIC against the probiotic strains, low salt (bacterial isolates) | MIC V. harveyi ATCC 35084, salinity 0‰ [2] | MIC V. harveyi ATCC 35084, salinity 25‰ [2] | MIC V. harveyi, salinity 0‰ (Vibrio harveyi [3]) | MIC V. harveyi, salinity 25‰ (Vibrio harveyi [3]) | MIC V. scophthalmi, salinity 0‰ (Vibrio scophthalmi [4]) | MIC V. scophthalmi, salinity 25‰ (Vibrio scophthalmi [4]) | MIC V. alginolyticus, salinity 0‰ (Vibrio alginolyticus [5]) | MIC V. alginolyticus, salinity 25‰ (Vibrio alginolyticus [5]) | MIC V. rotiferianus, salinity 0‰ (Vibrio rotiferianus [6]) | MIC V. rotiferianus, salinity 25‰ (Vibrio rotiferianus [6]) | MIC Pseudoalteromonas sp., salinity 25‰ (Pseudoalteromonas sp.) | MIC T. discolor, salinity 25‰ (Tenacibaculum discolor) | MIC E. coli ATCC 25922, salinity 0‰ [7] | MIC E. coli ATCC 25922, salinity 25‰ [7] | MIC Shewanella sp., salinity 0‰ (Shewanella sp. [8]) | MIC Shewanella sp., salinity 25‰ (Shewanella sp. [8]) | MIC V. harveyi ATCC 35084, Acetic [9] | MIC V. harveyi ATCC 35084, No acetic [9] | further results |
| --- | --- | --- | --- | --- | --- | --- | --- | --- | --- | --- | --- | --- | --- | --- | --- | --- | --- | --- | --- | --- | --- |
| KWRLLIRWRIQK [Peptide 2009] | caused cytotoxicity | 0.13 to 0.25 µg/mL | 1.02 µg/mL | > 65 µg/mL | 1.02 µg/mL | > 65 µg/mL | < 0.13 µg/mL | 32.5 µg/mL | 1.02 µg/mL | 65 µg/mL | 0.13 µg/mL | 32.5 µg/mL | > 65 µg/mL | > 65 µg/mL | 2.03 µg/mL | > 65 µg/mL | 0.51 µg/mL | > 65 µg/mL | 1.02 µg/mL | 1.02 µg/mL | MIC V. harveyi, Acetic (Vibrio harveyi [10]): 1.02 µg/mL; MIC V. harveyi, No acetic (Vibrio harveyi [10]): 1.02 µg/mL; MIC V. scophthalmi, Acetic (Vibrio scophthalmi [11]): 0.13 µg/mL; MIC V. scophthalmi, No acetic (Vibrio scophthalmi [11]): 0.51 µg/mL; MIC V. alginolyticus, Acetic (Vibrio alginolyticus [12]): 1.02 µg/mL; MIC V. alginolyticus, No acetic (Vibrio alginolyticus [12]): 1.02 µg/mL; MIC V. rotiferianus, Acetic (Vibrio rotiferianus [13]): 0.13 µg/mL; MIC V. rotiferianus, No acetic (Vibrio rotiferianus [13]): 1.02 µg/mL; MIC E. coli ATCC 25922, Acetic [14]: 2.03 µg/mL; MIC E. coli ATCC 25922, No acetic [14]: 2.03 µg/mL; MIC Shewanella sp., Acetic (Shewanella sp. [15]): 0.25 µg/mL; MIC Shewanella sp., No acetic (Shewanella sp. [15]): 1.02 µg/mL |
| RRWIVKVRIRRR-NH2 [Peptide 2008] | caused cytotoxicity | 0.13 to 0.25 µg/mL | 1.02 µg/mL | > 65 µg/mL | 1.02 µg/mL | > 65 µg/mL | 0.25 µg/mL | 65 µg/mL | 0.13 µg/mL | 65 µg/mL | 0.25 µg/mL | 65 µg/mL | 65 µg/mL | > 65 µg/mL | 4.06 µg/mL | > 65 µg/mL | 0.51 µg/mL | 65 µg/mL | 1.02 µg/mL | 1.02 µg/mL | MIC V. harveyi, Acetic (Vibrio harveyi [10]): 1.02 µg/mL; MIC V. harveyi, No acetic (Vibrio harveyi [10]): 1.02 µg/mL; MIC V. scophthalmi, Acetic (Vibrio scophthalmi [11]): 0.13 µg/mL; MIC V. scophthalmi, No acetic (Vibrio scophthalmi [11]): 0.25 µg/mL; MIC V. alginolyticus, Acetic (Vibrio alginolyticus [12]): 0.51 µg/mL; MIC V. alginolyticus, No acetic (Vibrio alginolyticus [12]): 1.02 µg/mL; MIC V. rotiferianus, Acetic (Vibrio rotiferianus [13]): 0.25 µg/mL; MIC V. rotiferianus, No acetic (Vibrio rotiferianus [13]): 1.02 µg/mL; MIC E. coli ATCC 25922, Acetic [14]: 2.03 µg/mL; MIC E. coli ATCC 25922, No acetic [14]: 4.06 µg/mL; MIC Shewanella sp., Acetic (Shewanella sp. [15]): 0.13 µg/mL; MIC Shewanella sp., No acetic (Shewanella sp. [15]): 0.51 µg/mL |
